Experimental data from publication PMC5225454, “A Comprehensive Evaluation of the Activity and Selectivity Profile of Ligands for RGD-binding Integrins” (Scientific Reports, 2017).
Where “and” joins values, the source holds several entries; their conditions need not be identical. Equal entries are not always repeated. Positions of bridges follow the written chain, without caps; N, C: chain ends. Residues, ends and D or L forms follow the SMILES beside them. *: point of attachment. X1 = O=C(COCC(=O)*)NCCOCCOCCOCCOCCOCCNC(=O)CO/N=C/c1ccc(F)cc1; X2 = NC(=O)COCC(=O)NCCOCCOCCOCCN*

Tests used:
[1] = biological target: T1, human platelet integrin αIIbβ3 (Homo sapiens, UniProt P05106+P08514); test: ELISA-like solid-phase binding assay, soluble integrin αIIbβ3 vs coated fibrinogen; details: referenced to internal standard
T1 construct: purchased VWR

[2] = biological target: T2, human αvβ3-integrin (Homo sapiens, UniProt P05106+P06756); test: ELISA-like solid-phase binding assay, soluble integrin αvβ3 vs coated vitronectin; details: for IC50: coated vitronectin, soluble integrin, referenced to internal standard
T2 construct: purchased R&D
T2 sequence (P06756 31-992 limits assumed): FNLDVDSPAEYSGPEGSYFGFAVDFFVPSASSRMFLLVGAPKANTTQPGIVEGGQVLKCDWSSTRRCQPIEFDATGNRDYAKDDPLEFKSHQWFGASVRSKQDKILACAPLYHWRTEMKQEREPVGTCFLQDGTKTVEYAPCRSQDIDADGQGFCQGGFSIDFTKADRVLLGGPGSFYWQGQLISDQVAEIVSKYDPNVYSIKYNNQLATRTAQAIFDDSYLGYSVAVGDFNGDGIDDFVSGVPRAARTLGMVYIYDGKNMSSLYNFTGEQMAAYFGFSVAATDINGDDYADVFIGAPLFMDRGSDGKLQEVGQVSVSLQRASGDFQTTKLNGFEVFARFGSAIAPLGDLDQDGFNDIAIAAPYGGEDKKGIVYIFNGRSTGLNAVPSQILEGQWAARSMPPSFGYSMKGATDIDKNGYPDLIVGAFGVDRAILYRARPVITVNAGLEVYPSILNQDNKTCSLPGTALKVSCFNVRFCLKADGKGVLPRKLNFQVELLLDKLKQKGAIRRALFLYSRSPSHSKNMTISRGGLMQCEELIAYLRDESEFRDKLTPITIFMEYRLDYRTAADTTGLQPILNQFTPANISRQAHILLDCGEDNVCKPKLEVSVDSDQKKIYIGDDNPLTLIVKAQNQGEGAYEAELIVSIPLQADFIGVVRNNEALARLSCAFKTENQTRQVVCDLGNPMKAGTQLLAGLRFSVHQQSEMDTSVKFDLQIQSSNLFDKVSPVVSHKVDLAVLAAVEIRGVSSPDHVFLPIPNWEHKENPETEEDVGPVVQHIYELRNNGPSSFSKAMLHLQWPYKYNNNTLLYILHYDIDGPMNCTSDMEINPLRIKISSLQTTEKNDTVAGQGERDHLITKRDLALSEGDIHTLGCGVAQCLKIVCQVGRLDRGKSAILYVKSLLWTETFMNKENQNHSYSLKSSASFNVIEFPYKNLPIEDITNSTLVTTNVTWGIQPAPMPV
T2 sequence (P05106 27-718 limits assumed): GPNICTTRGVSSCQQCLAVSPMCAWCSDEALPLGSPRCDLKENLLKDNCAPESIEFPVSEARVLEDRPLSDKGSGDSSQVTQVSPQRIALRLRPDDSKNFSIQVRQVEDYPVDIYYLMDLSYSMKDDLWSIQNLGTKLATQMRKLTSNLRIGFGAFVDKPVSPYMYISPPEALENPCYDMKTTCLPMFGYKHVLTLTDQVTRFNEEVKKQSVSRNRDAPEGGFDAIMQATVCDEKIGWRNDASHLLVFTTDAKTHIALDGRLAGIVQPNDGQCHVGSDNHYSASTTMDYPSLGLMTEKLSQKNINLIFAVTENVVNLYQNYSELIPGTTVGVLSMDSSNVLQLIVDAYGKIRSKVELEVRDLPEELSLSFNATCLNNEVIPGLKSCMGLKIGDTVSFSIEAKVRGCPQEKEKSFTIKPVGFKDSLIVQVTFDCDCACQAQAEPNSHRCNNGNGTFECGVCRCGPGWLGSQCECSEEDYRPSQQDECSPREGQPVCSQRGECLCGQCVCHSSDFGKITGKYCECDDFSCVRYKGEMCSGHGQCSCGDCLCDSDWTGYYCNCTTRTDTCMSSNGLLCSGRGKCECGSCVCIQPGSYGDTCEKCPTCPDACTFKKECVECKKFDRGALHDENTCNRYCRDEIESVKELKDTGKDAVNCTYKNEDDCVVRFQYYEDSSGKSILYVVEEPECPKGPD

[3] = biological target: T3, human αvβ8-Integrin (Homo sapiens, UniProt P06756+P26012); test: ELISA-like solid-phase binding assay, soluble integrin αvβ8 vs coated LAP (TGF-β); details: referenced to internal standard
T3 construct: purchased R&D
T3 sequence (P06756 31-992 limits assumed): as the sequence (P06756 31-992 limits assumed) above
T3 sequence (P26012 43-684 limits assumed): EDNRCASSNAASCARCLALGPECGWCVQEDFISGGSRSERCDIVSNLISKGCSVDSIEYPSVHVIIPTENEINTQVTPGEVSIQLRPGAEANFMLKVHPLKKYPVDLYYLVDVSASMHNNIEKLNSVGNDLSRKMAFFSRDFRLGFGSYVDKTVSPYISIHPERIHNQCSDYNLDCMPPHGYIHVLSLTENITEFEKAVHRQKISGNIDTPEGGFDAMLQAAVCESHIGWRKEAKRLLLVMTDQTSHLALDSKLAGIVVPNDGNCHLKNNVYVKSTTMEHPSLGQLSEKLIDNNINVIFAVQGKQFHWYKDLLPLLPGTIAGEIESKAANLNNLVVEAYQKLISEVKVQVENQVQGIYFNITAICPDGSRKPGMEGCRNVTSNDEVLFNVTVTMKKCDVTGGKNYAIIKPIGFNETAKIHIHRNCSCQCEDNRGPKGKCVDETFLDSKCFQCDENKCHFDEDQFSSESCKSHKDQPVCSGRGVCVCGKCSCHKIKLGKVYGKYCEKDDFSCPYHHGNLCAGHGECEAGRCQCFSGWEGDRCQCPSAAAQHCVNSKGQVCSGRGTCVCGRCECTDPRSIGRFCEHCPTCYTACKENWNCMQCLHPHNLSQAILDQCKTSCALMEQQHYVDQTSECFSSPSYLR

[4] = biological target: T4, human αvβ6-Integrin (Homo sapiens, UniProt P06756+P18564); test: ELISA-like solid-phase binding assay, soluble integrin αvβ6 vs coated LAP (TGF-β); details: coated LAP, soluble integrin; referenced to internal standard
T4 construct: purchased R&D
T4 sequence (P06756 31-992 limits assumed): as the sequence (P06756 31-992 limits assumed) above
T4 sequence (P18564 22-707 limits assumed): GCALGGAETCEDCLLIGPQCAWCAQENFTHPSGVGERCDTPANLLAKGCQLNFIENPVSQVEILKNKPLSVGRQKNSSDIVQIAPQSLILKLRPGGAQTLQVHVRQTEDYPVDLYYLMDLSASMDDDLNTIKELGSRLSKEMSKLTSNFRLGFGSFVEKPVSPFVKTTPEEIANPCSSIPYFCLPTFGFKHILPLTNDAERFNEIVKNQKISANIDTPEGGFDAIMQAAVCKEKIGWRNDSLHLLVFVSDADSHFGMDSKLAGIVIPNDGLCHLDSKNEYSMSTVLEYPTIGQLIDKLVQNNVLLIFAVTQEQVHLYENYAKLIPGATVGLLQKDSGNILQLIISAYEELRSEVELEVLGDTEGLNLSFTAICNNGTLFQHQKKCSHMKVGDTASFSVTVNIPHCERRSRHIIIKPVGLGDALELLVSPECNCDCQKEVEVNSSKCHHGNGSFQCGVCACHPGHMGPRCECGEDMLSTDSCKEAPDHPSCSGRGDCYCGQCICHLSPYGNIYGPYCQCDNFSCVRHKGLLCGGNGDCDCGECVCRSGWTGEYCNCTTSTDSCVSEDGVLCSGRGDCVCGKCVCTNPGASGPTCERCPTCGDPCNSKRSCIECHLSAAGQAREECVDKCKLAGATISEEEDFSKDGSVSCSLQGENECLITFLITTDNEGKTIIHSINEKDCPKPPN

[5] = biological target: T5, human αvβ5-integrin (Homo sapiens, UniProt P06756+P18084); test: ELISA-like solid-phase binding assay, soluble integrin αvβ5 vs coated vitronectin; details: referenced to internal standard
T5 construct: purchased Millipore
T5 sequence (P06756 31-1048): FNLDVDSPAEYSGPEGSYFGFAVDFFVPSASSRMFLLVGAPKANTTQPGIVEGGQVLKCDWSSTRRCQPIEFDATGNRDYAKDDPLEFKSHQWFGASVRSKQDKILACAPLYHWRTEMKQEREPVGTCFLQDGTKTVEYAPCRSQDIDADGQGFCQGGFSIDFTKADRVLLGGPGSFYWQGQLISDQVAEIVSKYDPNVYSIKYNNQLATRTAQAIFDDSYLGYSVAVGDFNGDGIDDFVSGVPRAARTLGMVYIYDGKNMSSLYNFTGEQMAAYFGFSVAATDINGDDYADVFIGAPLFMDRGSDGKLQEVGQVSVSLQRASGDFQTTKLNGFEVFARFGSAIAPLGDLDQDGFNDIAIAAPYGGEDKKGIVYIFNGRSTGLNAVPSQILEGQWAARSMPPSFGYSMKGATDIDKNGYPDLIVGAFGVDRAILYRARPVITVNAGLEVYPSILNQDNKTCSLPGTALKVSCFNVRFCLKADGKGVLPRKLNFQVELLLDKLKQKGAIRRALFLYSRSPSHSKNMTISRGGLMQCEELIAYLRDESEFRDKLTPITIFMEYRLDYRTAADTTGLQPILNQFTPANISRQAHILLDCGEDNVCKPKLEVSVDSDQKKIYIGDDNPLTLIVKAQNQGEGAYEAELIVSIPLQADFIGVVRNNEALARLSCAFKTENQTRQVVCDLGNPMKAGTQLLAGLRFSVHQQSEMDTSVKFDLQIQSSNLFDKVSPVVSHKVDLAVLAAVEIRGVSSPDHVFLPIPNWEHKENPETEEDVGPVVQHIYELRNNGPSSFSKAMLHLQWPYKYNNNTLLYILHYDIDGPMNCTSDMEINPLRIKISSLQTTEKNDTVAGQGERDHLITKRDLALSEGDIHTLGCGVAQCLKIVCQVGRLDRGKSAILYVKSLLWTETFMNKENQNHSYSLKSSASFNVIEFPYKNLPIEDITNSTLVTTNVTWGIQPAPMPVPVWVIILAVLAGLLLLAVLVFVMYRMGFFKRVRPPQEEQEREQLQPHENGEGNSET
T5 sequence (P18084 24-799): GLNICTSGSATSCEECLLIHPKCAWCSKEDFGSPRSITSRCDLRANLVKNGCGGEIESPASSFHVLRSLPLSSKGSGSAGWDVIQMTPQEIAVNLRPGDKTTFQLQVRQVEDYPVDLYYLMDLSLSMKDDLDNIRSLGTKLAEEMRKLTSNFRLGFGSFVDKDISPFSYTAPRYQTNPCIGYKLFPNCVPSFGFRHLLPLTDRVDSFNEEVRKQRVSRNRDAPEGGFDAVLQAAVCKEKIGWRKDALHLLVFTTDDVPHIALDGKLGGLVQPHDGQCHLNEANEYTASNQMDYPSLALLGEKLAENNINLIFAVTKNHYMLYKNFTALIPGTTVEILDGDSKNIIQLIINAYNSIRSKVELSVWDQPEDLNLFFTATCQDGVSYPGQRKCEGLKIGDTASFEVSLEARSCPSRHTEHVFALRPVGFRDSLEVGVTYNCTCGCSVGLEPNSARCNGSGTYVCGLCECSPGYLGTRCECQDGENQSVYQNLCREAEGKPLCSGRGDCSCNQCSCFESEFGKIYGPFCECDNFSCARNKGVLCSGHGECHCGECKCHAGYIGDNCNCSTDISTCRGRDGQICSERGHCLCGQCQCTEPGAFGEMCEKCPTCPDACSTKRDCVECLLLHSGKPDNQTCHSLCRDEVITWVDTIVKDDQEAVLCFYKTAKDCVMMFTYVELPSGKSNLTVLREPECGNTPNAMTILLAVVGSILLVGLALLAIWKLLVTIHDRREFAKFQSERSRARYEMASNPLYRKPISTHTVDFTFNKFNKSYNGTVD

[6] = biological target: T6, α5β1 integrin (Homo sapiens, UniProt P05556+P08648); test: ELISA-like solid-phase binding assay, soluble integrin α5β1 vs coated fibronectin; parameters: purchased R&D; details: coated fibronectin, soluble integrin; referenced to internal standard; read-out: IC50 α5β1
[7] = biological target: T6, α5β1 integrin; test: Solid phase binding assay with surface-coated integrin and soluble fibronectin; details: incubation with fibronectin, unpublished data
Method: Tests carried out in cell-free systems, use isolated extracellular domains of integrins in conjunction with ECM proteins, either extracted from human tissue or produced by recombinant methods. Most of these tests are based on competitive solid phase binding assays, in which one component is bound to the multi-well plate and in a subsequent step, soluble ligands are added, testing their capacity to block the binding to that component. Mainly two procedures are described in the literature, differing in the molecule used to coat the surfaces: the isolated integrin extracellular domains or the ECM protein. In the first case, the integrin is coated on the surface, followed by an incubation with a mixture of the native ECM protein and increasing concentrations of the ligand of interest. In an alternative test system, the natural ECM protein (vitronectin for αvβ3 and αvβ5, LAP (TGFβ) for αvβ6 and αvβ8, fibronectin for α5β1 and fibrinogen for αIIbβ3) is immobilized onto the surface, and the soluble integrin, together with a serial dilution of the inhibitory ligand, is added afterwards. The read-out in both procedures is usually done in an ELISA-like manner by using conjugated antibodies recognizing the integrin head groups. […] For a detailed description of the reference to the SI. […]

[8] = cited from earlier work

SMILES: N=C(N)NCCC[C@H](N)C(=O)NCC(=O)N[C@@H](CC(=O)O)C(=O)O [RGD]
- IC50 [1]: > 10 µM
- IC50 [2]: 89 ± 12 nM
- IC50 [3]: > 10 µM
- IC50 [4]: > 10000 nM
- IC50 [5]: 440 ± 65 nM

SMILES: CC(=O)N1CCC[C@H]1C(=O)N[C@@H](Cc1c[nH]cn1)C(=O)N[C@@H](CO)C(=O)N[C@@H](CS)C(=O)N[C@@H](CC(N)=O)C(N)=O [ATN161, Ac-PHSCN-NH2] (Ac-PHSCN-NH2)
- IC50 [6]: 4.2 ± 0.5 nM
- IC50 [1]: > 10 µM
- IC50 [2]: > 10000 nM
- IC50 [3]: > 10 µM
- IC50 [4]: 3130 ± 591 nM
- IC50 [5]: > 10000 nM

SMILES: NC(N)=NCCC[C@H](N)C(=O)NCC(=O)N[C@@H](CC(=O)O)C(=O)N[C@@H](CO)C(=O)O [RGDS]
- IC50 [6]: 181 ± 23 nM
- IC50 [2]: 45 ± 5 nM
- IC50 [3]: > 10 µM
- IC50 [4]: > 10000 nM
- IC50 [5]: 433 ± 34 nM

SMILES: CCCCS(=O)(=O)N[C@@H](Cc1ccc(OCCCCC2CCNCC2)cc1)C(=O)O [Tirofiban]
- IC50 [6]: > 10000 nM
- IC50 [2]: > 10000 nM
- IC50 [3]: > 10 µM
- IC50 [4]: > 10000 nM
- IC50 [5]: > 10000 nM

SMILES: NCCCC[C@H](NC(=O)[C@@H]1CCCN1C(=O)[C@H](CO)NC(=O)[C@H](CC(=O)O)NC(=O)CNC(=O)[C@H](CCCN=C(N)N)NC(=O)CN)C(=O)O [GRGDSPK]
- IC50 [6]: 66 ± 6 nM
- IC50 [1]: > 10 µM
- IC50 [2]: 12.2 ± 0.1 nM
- IC50 [3]: > 10 µM
- IC50 [4]: 1030 ± 242 nM
- IC50 [5]: 201 ± 32 nM

SMILES: CC(C)[C@H]1C(=O)N[C@@H](CCCNC(=N)N)C(=O)NCC(=O)N[C@@H](CC(=O)O)C(=O)N[C@H](Cc2ccccc2)C(=O)N1C [Cilengitide, c(RGDf(NMe)V)]
- antagonistic activity towards coated α5β1 [7]: low antagonistic activities
- half-life in man [8]: about four
- systemic metabolism ([8]; man): not metabolized systemically

SMILES: N=C(N)NCCC[C@@H]1NC(=O)[C@@H]2CSSC[C@H](NC(=O)[C@H](CC(=O)O)NC(=O)CNC1=O)C(=O)N[C@@H](Cc1ccccc1)C(=O)N[C@H](C(=O)NCCOCCOCCOCCNC(=O)COCC(N)=O)CSCC(=O)N[C@@H](CCCCNC(=O)COCC(=O)NCCOCCOCCOCCOCCOCCNC(=O)CO/N=C/c1ccc(F)cc1)C(=O)N2 [Flucilatide] ({CH2CO}-K(X1)CRGDCFC-X2; disulfide 2-6; thioether N-8; N-terminus and C-terminus assumed)
- fold change of αvβ3 IC50-value after functionalization ([2]; versus targeting unit NC100717): 3 fold

SMILES: N=C(N)NCCC[C@@H]1NC(=O)[C@H](CCCCN)NC(=O)[C@@H](Cc2ccc(O)cc2)NC(=O)[C@H](CC(=O)O)NC(=O)CNC1=O [c(RGDyK)]
- IC50 [6]: 236 ± 45 nM
- IC50 [3]: > 10 µM

SMILES: N=C(N)NCCC[C@@H]1NC(=O)[C@H](CCCCN)NC(=O)[C@@H](Cc2ccccc2)NC(=O)[C@H](CC(=O)O)NC(=O)CNC1=O [c(RGDfK)]
- IC50 [6]: 141 ± 15 nM
- IC50 [1]: > 10 µM
- IC50 [3]: 5.2 ± 0.67 µM
- IC50 [5]: 340 ± 24 nM

SMILES: Cc1ccnc(NCCCC(=O)NCC(=O)NC(CC(=O)O)c2ccc(-c3cccc4ccccc34)cc2)c1 (centres unmarked) [Mol11*]
- IC50 [6]: 3020 ± 410 nM
- IC50 [1]: > 10 µM
- IC50 [2]: 13.2 ± 0.5 nM
- IC50 [3]: 0.0185 ± 0.0043 µM
- IC50 [4]: 1.3 nM and 1.32 nM
- IC50 [5]: 530 ± 49 nM

SMILES: N=C(N)NCCC[C@H](NC(=O)CN)C(=O)NCC(=O)N[C@@H](CC(=O)O)C(=O)N[C@@H](CC(N)=O)C(=O)N1CCC[C@H]1C(=O)O [GRGDNP] (H-GRGDNP-OH)
- IC50 [6]: 34 ± 3 nM
- IC50 [1]: > 10 µM
- IC50 [2]: 45 ± 12 nM
- IC50 [3]: > 10 µM
- IC50 [4]: > 10000 nM
- IC50 [5]: 506 ± 120 nM

SMILES: N=C(N)NCCC[C@H](NC(=O)CN)C(=O)NCC(=O)N[C@@H](CC(=O)O)C(=O)N[C@@H](CO)C(=O)O [GRGDS]
- IC50 [6]: 77 ± 8 nM
